Assay results taken from ChEMBL document CHEMBL4627415, “Design and Structural Optimization of Dual FXR/PPARδ Activators” (J Med Chem, 2020).
Converted amounts (≈) assume the structure as drawn. The source made the active and inactive calls. The rule behind the calls is not given here.

Legend:
[1] = target: T1, Peroxisome proliferator-activated receptor delta (Homo sapiens) (UniProt Q03181); assay: Activation of human PPAR-delta LBD expressed in HEK293T cells assessed as induction of receptor activation at 10 uM incubated for 12 to 14 hrs by luciferase reporter gene assay; format: cell-based; conditions: HEK-293T
T1 sequence (whole entry): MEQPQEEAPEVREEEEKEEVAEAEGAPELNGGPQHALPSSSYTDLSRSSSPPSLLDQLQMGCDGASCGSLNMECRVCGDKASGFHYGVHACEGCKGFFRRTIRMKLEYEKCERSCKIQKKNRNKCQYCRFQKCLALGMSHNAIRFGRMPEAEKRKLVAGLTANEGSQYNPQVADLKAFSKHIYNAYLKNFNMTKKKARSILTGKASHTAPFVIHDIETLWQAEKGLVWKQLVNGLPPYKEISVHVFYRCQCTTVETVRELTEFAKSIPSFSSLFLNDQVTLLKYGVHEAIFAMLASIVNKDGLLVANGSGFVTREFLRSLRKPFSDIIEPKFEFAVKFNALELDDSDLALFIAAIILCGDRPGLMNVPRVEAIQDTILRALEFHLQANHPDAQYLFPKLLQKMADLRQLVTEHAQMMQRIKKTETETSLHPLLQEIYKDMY

[2] = target: T2, Retinoic acid receptor alpha (Homo sapiens) (UniProt P10276); assay: Activation of human RAR-alphaLBD expressed in HEK293T cells assessed as induction of receptor activation at 10 uM incubated for 12 to 14 hrs by luciferase reporter gene assay; format: cell-based; conditions: HEK-293T
T2 sequence (whole entry): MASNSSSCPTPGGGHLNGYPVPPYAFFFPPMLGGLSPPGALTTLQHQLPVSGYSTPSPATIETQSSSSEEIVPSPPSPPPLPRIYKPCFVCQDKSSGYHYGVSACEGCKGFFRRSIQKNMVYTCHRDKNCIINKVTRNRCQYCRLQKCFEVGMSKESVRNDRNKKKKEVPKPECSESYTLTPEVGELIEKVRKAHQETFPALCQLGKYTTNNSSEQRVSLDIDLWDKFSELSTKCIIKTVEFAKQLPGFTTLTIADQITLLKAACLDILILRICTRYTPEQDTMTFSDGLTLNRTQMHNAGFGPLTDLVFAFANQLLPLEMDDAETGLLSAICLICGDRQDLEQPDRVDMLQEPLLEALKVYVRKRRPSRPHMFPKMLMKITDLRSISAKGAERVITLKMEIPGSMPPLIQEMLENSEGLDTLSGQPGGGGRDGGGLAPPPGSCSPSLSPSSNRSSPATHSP

[3] = target: T3, Bile acid receptor (Homo sapiens) (UniProt Q96RI1); assay: Activation of FXR in human HepG2 cells assessed as increase in BSEP mRNA expression at 3 uM incubated for 8 hrs by quantitative real time PCR analysis; format: cell-based
T3 sequence (whole entry): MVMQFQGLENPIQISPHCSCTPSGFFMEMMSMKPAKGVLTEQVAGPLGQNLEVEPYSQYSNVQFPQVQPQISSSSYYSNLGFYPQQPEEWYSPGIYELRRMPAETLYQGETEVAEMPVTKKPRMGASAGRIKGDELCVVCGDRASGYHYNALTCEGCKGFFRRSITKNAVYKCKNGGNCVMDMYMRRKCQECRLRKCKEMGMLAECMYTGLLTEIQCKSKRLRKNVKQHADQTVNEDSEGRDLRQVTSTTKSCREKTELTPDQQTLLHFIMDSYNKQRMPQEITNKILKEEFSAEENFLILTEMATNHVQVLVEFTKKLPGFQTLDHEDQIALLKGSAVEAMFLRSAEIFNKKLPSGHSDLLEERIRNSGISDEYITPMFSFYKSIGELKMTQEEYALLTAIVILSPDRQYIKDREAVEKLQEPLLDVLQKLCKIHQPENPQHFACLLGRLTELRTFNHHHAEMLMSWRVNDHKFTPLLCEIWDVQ

[4] = Aqueous solubility in pH 8 buffer by HPLC analysis; format: physicochemical
[5] = target: T3, Bile acid receptor (Homo sapiens); assay: Activation of human FXR LBD expressed in HEK293T cells assessed as induction of receptor activation at 10 uM incubated for 12 to 14 hrs by luciferase reporter gene assay; format: cell-based; conditions: HEK-293T
[6] = Stability in Sprague-Dawley rat liver microsomes assessed as remaining parent compound level at 10 uM presence of NADPH regenerating system by HPLC analysis; format: ADME, Microsome; conditions: read-out: Stability
[7] = target: T3, Bile acid receptor (Homo sapiens); assay: Activation of human FXR LBD expressed in HEK293T cells assessed as induction of receptor activation at 1 uM incubated for 12 to 14 hrs by luciferase reporter gene assay relative to GW4064; format: cell-based; conditions: HEK-293T
[8] = target: T3, Bile acid receptor (Homo sapiens); assay: Activation of FXR in human HepG2 cells assessed as increase in SHP mRNA expression at 3 uM incubated for 8 hrs by quantitative real time PCR analysis; format: cell-based
[9] = target: T4, Oxysterols receptor LXR-alpha (Homo sapiens) (UniProt Q13133); assay: Activation of human LXR-alpha LBD expressed in HEK293T cells assessed as induction of receptor activation at 10 uM incubated for 12 to 14 hrs by luciferase reporter gene assay; format: cell-based; conditions: HEK-293T
T4 sequence (whole entry): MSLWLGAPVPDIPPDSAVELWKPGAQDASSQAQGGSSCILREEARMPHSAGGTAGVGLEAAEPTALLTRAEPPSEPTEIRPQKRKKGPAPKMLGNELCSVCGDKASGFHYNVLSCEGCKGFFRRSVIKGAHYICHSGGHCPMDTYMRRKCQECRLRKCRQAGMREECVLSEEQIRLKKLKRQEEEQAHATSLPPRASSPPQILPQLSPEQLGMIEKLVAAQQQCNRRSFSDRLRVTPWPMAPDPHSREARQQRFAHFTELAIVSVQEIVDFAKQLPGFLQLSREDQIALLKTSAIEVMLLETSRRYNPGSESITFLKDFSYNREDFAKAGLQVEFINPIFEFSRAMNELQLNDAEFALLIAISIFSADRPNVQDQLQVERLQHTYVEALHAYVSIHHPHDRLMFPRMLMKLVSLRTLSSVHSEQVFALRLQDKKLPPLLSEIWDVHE

[10] = target: T5, Retinoic acid receptor RXR-alpha (Homo sapiens) (UniProt P19793); assay: Activation of human RXR-alphaLBD expressed in HEK293T cells assessed as induction of receptor activation at 10 uM incubated for 12 to 14 hrs by luciferase reporter gene assay; format: cell-based; conditions: HEK-293T
T5 sequence (whole entry): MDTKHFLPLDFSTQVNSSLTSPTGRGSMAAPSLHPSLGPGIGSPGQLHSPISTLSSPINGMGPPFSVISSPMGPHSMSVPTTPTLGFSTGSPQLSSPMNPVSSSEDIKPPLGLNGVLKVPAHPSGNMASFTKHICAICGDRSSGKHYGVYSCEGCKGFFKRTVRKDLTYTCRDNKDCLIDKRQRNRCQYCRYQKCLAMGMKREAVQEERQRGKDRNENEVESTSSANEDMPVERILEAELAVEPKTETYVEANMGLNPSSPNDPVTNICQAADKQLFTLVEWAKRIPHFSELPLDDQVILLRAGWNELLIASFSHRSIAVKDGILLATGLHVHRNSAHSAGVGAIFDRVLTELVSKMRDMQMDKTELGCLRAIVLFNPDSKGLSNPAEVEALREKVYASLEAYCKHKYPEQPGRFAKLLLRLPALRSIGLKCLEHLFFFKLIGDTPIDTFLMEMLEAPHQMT

Activity [1]: Active | Activity [2]: inactive | solubility [4]: 159 µg/mL (≈ 284 µM) | Activity [5]: Active | remaining at 10 µM [6]: 48% | %max [7]: 31% | Activity [8]: Active | Activity [9]: inactive | Activity [10]: inactive
SMILES: CC(C)c1onc(-c2c(Cl)cccc2Cl)c1COc1ccc(CNc2ccc(CC(=O)O)cc2)c(Cl)c1
Activity [3]: Active
